In brackets after ≈: the same amount, converted by molar mass.
How the values were obtained:
Assay in all cases: Minimum inhibitory concentration (broth microdilution, CLSI)
Assay type in all cases: cell-based
[1] = test system: Enterobacter cloacae HDBECL 30030; conditions: HDBECL30030
Description: (§1) 103 bacterial strains used for the minimum inhibitory concentration test were frozen in a −80° C. ULT freezer and thawed 2 days before use. A small amount of frozen microorganism bacteria were scraped using a sterile inoculating loop, streaked onto a suitable solid culture dish for inoculation, and then cultured for about 20 h at 35 t 2° C. in a normal incubator. • Proteus mirabilis HDBPM 40: MA, normal atmospheric environment • The remaining 102 strains of bacteria: TSA, normal atmospheric environment
(§2) 5-10 colonies with similar morphology were picked from the culture dish using a sterile inoculating loop and then re-streaked onto a corresponding solid culture dish. Then the dish was incubated in a normal incubator at 35 t 2° C. for about 20 h.
(§3) 5-10 single microbial colonies were picked from the solid culture dish, resuspended in 500 μL of sterile normal saline (0.9% NaCl), and adjusted to an OD600 of about 0.15 with a spectrophotometer.
(§4) The bacteria were then diluted 300-fold with 1.02×CAMHB to an inoculation concentration of 2×10^5 CFU/mL.
(§5) • There were a total of 3 assay plate patterns, one of which was used for each assay. • 8 rows of the assay plate (rows A-H) were for 8 test compounds, respectively. The highest test concentration of the compounds was 16, 32 or 64 μg/mL, and each compound was diluted 2-fold. • Growth control (GC): a medium containing microbial inoculum (1.02×CAMHB) and dimethylsulfoxide (DMSO) but no compound.
(§6) The test and reference compounds were dissolved in DMSO or H2O to prepare 6.4 mg/mL stock solutions. The stock solutions were diluted to prepare standby solutions with certain concentrations, and the volumes of the standby solutions were determined according to the experimental design. Corresponding volumes of the standby solutions were transferred to the starting wells of a dilution plate (A1-H1), and half the starting-well volume of DMSO to the other wells. Each compound was diluted 2-fold sequentially from column 1 to column 11 (e.g., transferring 30 μL of DMSO to columns 2-12 first, then pipetting 30 μL of the compounds from column 1 to column 2 and mixing them well, then pipetting 30 μL of the compounds from column 2 to column 3 and mixing them well, then pipetting 30 μL of the compounds from column 3 to column 4 and mixing them well, and so on to column 11).
(§7) 1 or 2 μL of the compounds and DMSO were transferred from the compound plate to corresponding wells of the assay plates.
(§8) 98 μL of corresponding bacterial inocula were added to the assay plates.
(§9) After addition, the assay plates were covered with sterile covers. The mixtures in the assay plates were centrifuged in a centrifuge at 800 rpm for 30 s, mixed well on a microplate shaker at 400 rpm for 1 min, and incubated in a normal incubator at 35 t 2° C. for 20-24 h.
(§10) The assay plates were placed on a plate reading device, and the speculum was adjusted to observe and record the growth condition of bacteria in each well. In the mean time, each assay plate was photographed with QCount system.
(§11) The minimum inhibitory concentration of each compound was recorded by reference to guidelines from the Clinical and Laboratory Standards Institute.
(§12) The minimum inhibitory concentrations of the compounds against experimental strains were tested in this study by reference to the medium microdilution method as indicated by the Clinical and Laboratory Standards Institute. Compounds were diluted two-fold in 96-well plates from the highest detection concentration of 16, 32 or 64 μg/mL. The bacterial inocula in the assay plates were thawed from corresponding medium plates and diluted in 1.02×CAMHB, while growth controls (GC wells) were set up in the assay plates. The minimum inhibitory concentration of each compound against different bacteria was observed and recorded after the assay plates were incubated in a normal incubator at 35 t 2° C. for about 20 h. The minimum inhibitory concentration values for the different compounds are listed in the list below.

[2] = test system: Escherichia coli HDBEC 30008; conditions: HDBEC30008
Description: as §1, §2, §3, §4, §5, §6, §7, §8, §9, §10, §11, §12

[3] = test system: Escherichia coli HDBEC 30016; conditions: HDBEC30016
Description: as §1, §2, §3, §4, §5, §6, §7, §8, §9, §10, §11, §12

[4] = test system: Escherichia coli HDBEC 30048; conditions: HDBEC30048
Description: as §1, §2, §3, §4, §5, §6, §7, §8, §9, §10, §11, §12

[5] = test system: Klebsiella pneumoniae HDBKP 30006; conditions: HDBKP30006
Description: as §1, §2, §3, §4, §5, §6, §7, §8, §9, §10, §11, §12

[6] = test system: Klebsiella pneumoniae HDBKP 9153; conditions: HDBKP9153
Description: as §1, §2, §3, §4, §5, §6, §7, §8, §9, §10, §11, §12

[7] = test system: Klebsiella pneumoniae HDBKP 9249; conditions: HDBKP9249
Description: as §1, §2, §3, §4, §5, §6, §7, §8, §9, §10, §11, §12

[8] = test system: Proteus mirabilis HDBPM 40; conditions: HDBPM40
Description: as §1, §2, §3, §4, §5, §6, §7, §8, §9, §10, §11, §12

[9] = test system: Pseudomonas aeruginosa HDBPA 5679; conditions: HDBPA5679
Description: as §1, §2, §3, §4, §5, §6, §7, §8, §9, §10, §11, §12

SMILES | MIC [1] [µg/mL] | MIC [2] [µg/mL] | MIC [3] [µg/mL] | MIC [4] [µg/mL] | MIC [5] [µg/mL] | MIC [6] [µg/mL] | MIC [7] [µg/mL] | MIC [8] [µg/mL] | MIC [9] [µg/mL]
CC(C)(O/N=C(\C(=O)N[C@H]1C(=O)N(S(=O)(=O)O)[C@H]1CNC(=O)c1cc([C@@H]2CC[N+](C)(CCNC(=O)c3ccc(O)c(O)c3Cl)C2)no1)c1csc(N)n1)C(=O)O (stereo partly drawn) [Compound I-20] | < 4 | < 4 | > 16 | 8 to 16 | > 16 | 8 to 16 | > 16 | < 4 | 8 to 16
CC(C)(O/N=C(\C(=O)N[C@H]1C(=O)N(S(=O)(=O)O)[C@H]1CNC(=O)c1cc([C@@H]2CCN(C(=O)c3cc(=O)c(O)cn3O)C2)no1)c1csc(N)n1)C(=O)O [Compound I-21] | < 4 | < 4 | > 16 | < 4 | > 16 | < 4 | > 16 | < 4 | < 4
Nc1nc(/C(=N/OC2(C(=O)O)CC2)C(=O)N[C@@H]2C(=O)N(S(=O)(=O)O)[C@@H]2CNC(=O)c2cc([C@@H]3CCN(C(=O)c4cc(=O)c(O)cn4O)C3)no2)cs1 [Compound I-22] | < 4 | < 4 | 4 to 8 (≈ 5.22 to 10.4 µM) | < 4 | > 16 | < 4 | 4 to 8 (≈ 5.22 to 10.4 µM) | < 4 | < 4
Nc1nc(/C(=N/OC2(C(=O)O)CC2)C(=O)N[C@@H]2C(=O)N(S(=O)(=O)O)[C@@H]2CNC(=O)c2cc([C@@H]3CCN(C(=O)c4ccc(O)c(O)c4Cl)C3)no2)cs1 [Compound I-23] | < 4 | < 4 | < 4 | < 4 | 8 to 16 (≈ 10.2 to 20.4 µM) | < 4 | < 4 | < 4 | < 4
C[N+]1(CCNC(=O)c2ccc(O)c(O)c2Cl)CC[C@@H](c2cc(C(=O)NC[C@@H]3[C@H](NC(=O)/C(=N\OC4(C(=O)O)CC4)c4csc(N)n4)C(=O)N3S(=O)(=O)O)on2)C1 (stereo partly drawn) [Compound I-24] | < 4 | < 4 | 8 to 16 | < 4 | 8 to 16 | < 4 | < 4 | < 4 | < 4
Nc1nc(/C(=N/OC2(C(=O)O)CC2)C(=O)N[C@@H]2C(=O)N(S(=O)(=O)O)[C@@H]2CNC(=O)c2cc([C@H]3CCN(C(=O)c4cc(=O)c(O)cn4O)C3)no2)cs1 [Compound I-25] | < 4 | < 4 | 4 to 8 (≈ 5.22 to 10.4 µM) | < 4 | > 16 | < 4 | 4 to 8 (≈ 5.22 to 10.4 µM) | < 4 | < 4
CC(C)(O/N=C(\C(=O)N[C@H]1C(=O)N(S(=O)(=O)O)[C@H]1CNC(=O)c1cc([C@@H]2CCN(C(=O)c3cc(=O)c(O)cn3O)C2)no1)c1nc(N)sc1Cl)C(=O)O [Compound I-26] | > 16 | > 16 | > 16 | > 16 | > 16 | > 16 | > 16 | 4 to 8 (≈ 4.99 to 9.97 µM) | > 16
CC(C)(O/N=C(\C(=O)N[C@@H]1C(=O)N(S(=O)(=O)O)[C@@H]1CNC(=O)c1cnc([C@@H]2CC[N+](C)(CCNC(=O)c3ccc(O)c(O)c3Cl)C2)s1)c1csc(N)n1)C(=O)O (stereo partly drawn) [Compound I-34] | < 4 | < 4 | < 4 | < 4 | 4 to 8 | < 4 | 8 to 16 | < 4 | < 4
CC(C)(O/N=C(\C(=O)N[C@@H]1C(=O)N(S(=O)(=O)O)[C@@H]1CNC(=O)c1cc([C@@H]2CCN(CCNc3ccc(O)c(O)c3Cl)C2)no1)c1csc(N)n1)C(=O)O [Compound I-36] | < 4 | < 4 | 4 to 8 (≈ 5 to 10 µM) | < 4 | 8 to 16 (≈ 10 to 20 µM) | < 4 | < 4 | < 4 | < 4
CC(C)(O/N=C(\C(=O)N[C@@H]1C(=O)N(S(=O)(=O)O)[C@@H]1CNC(=O)c1cnc([C@@H]2CC[N+](C)(C[C@H](N)CNC(=O)c3ccc(O)c(O)c3Cl)C2)s1)c1csc(N)n1)C(=O)O (stereo partly drawn) [Compound I-38] | < 4 | < 4 | < 4 | < 4 | 8 to 16 | < 4 | 8 to 16 | < 4 | < 4
CC(C)(O/N=C(\C(=O)N[C@@H]1C(=O)N(S(=O)(=O)O)[C@@H]1CNC(=O)c1cc([C@@H]2CCN(CCNC(=O)c3cc(=O)c(O)c[nH]3)C2)no1)c1csc(N)n1)C(=O)O [Compound I-39] | < 4 | < 4 | > 16 | < 4 | 8 to 16 (≈ 10.1 to 20.1 µM) | < 4 | 8 to 16 (≈ 10.1 to 20.1 µM) | < 4 | < 4

Continued, values first:

MIC [1] [µg/mL] | MIC [2] [µg/mL] | MIC [3] [µg/mL] | MIC [4] [µg/mL] | MIC [5] [µg/mL] | MIC [6] [µg/mL] | MIC [7] [µg/mL] | MIC [8] [µg/mL] | MIC [9] [µg/mL] | SMILES
< 4 | < 4 | < 4 | < 4 | 8 to 16 (≈ 9.87 to 19.7 µM) | < 4 | 8 to 16 (≈ 9.87 to 19.7 µM) | < 4 | < 4 | CC(C)(O/N=C(\C(=O)N[C@@H]1C(=O)N(S(=O)(=O)O)[C@@H]1CNC(=O)c1cc([C@@H]2CCN(CCNC(=O)c3cc(=O)c(O)cn3O)C2)no1)c1csc(N)n1)C(=O)O [Compound I-40]
< 4 | < 4 | < 4 | < 4 | < 4 | < 4 | 4 to 8 (≈ 4.74 to 9.48 µM) | < 4 | < 4 | CC(C)(O/N=C(\C(=O)N[C@@H]1C(=O)N(S(=O)(=O)O)[C@@H]1CNC(=O)c1cnc([C@@H]2CCN(CCNC(=O)c3ccc(O)c(O)c3Cl)C2)s1)c1csc(N)n1)C(=O)O [Compound I-41]
< 4 | < 4 | < 4 | < 4 | < 4 | < 4 | 8 to 16 (≈ 9.36 to 18.7 µM) | < 4 | < 4 | CC(C)(O/N=C(\C(=O)N[C@@H]1C(=O)N(S(=O)(=O)O)[C@@H]1CNC(=O)c1cnc(C2=CC(CCCNC(=O)c3ccc(O)c(O)c3Cl)N=C2)s1)c1csc(N)n1)C(=O)O (stereo partly drawn) [Compound I-42]
< 4 | < 4 | 8 to 16 (≈ 9.54 to 19.1 µM) | < 4 | 8 to 16 (≈ 9.54 to 19.1 µM) | < 4 | 8 to 16 (≈ 9.54 to 19.1 µM) | < 4 | < 4 | Cc1c(C(=O)NCCN2CC[C@@H](c3cc(C(=O)NC[C@@H]4[C@H](NC(=O)/C(=N\OC(C)(C)C(=O)O)c5csc(N)n5)C(=O)N4S(=O)(=O)O)on3)C2)n(O)c(C)c(O)c1=O [Compound I-45]
< 4 | < 4 | < 4 | < 4 | 8 to 16 (≈ 9.39 to 18.8 µM) | < 4 | 8 to 16 (≈ 9.39 to 18.8 µM) | < 4 | < 4 | Cc1c(O)c(=O)cc(C(=O)NCCCn2cc(-c3ncc(C(=O)NC[C@@H]4[C@H](NC(=O)/C(=N\OC(C)(C)C(=O)O)c5csc(N)n5)C(=O)N4S(=O)(=O)O)s3)cn2)n1O [Compound I-46]
